Measured values: patent publication US20250208133A1, “SENESCENT CELL SURFACE MARKERS” (SENS RESEARCH FOUNDATION, priority 2022, published 2025)

Columns and labels:
Assay type in all cases: cell-based, human
[1] = system: non-senescent (NS) IMR-90 cells; assay: xCELLigence RTCA impedance viability assay, non-senescent cells; conditions: 48 hours of treatment with 1 μM
senescent IMR-90 cells = assay: xCELLigence RTCA impedance viability assay, senescent cells
Method: (§1) Human IMR-90 fibroblasts (ATCC, USA) were treated with 300 nM of doxorubicin hydrochloride (Millipore Sigma, USA; Cat #504042) in DMEM complete media for 24 hours or ionizing radiation (10 Gy X-ray) and maintained in culture. Primary human endothelial cells were treated with 250 nM of doxorubicin in promo cell basal medium supplemented with Growth Medium MV 2 Supplement Pack for 24 hours and maintained in culture. Senescent cells were used 7-13 days following treatment.
For measurement of background values, 50 μl of complete medium was added to E-Plates 96 (Agilent). Cells were seeded in a total of 200 μl of medium per well at a density of 10,000 cells per well. Cell attachment was monitored using the RTCA MP (Agilent) instrument and the RTCA software (Agilent). Media was replaced with media containing either DMSO, vacuolin-1 or apilimod. Cells treated with 0.2% Triton X-100 was used as a 100% dead cell positive control for cytotoxicity assays. After drug addition, impedance measurements were recorded every 15 minutes. All experiments were performed in at least 5 replicates for each dose. Changes in impedance were expressed as a cell index (CI) value, which derives from relative impedance changes corresponding to cellular coverage of the electrode sensors, normalized to baseline impedance values with medium only. To analyze the acquired data, CI values were exported, and percentage of attached cell surface was calculated in relation to positive controls and DMSO-treated cells.
Senescent cells are known to employ several mechanisms to increase their survival. For example, increased expression of the pro-survival BCL-family proteins has been widely studied. In fact, BCL antagonism has been the basis of many senolytic drugs (see, e.g., Zhu, et al., Aging Cell. 2016 June; 15(3):428-35). Vacuolin-1 was used to determine if lysosomal exocytosis is a mechanism for senescent cell survival. Vacuolin-1 is a potent inhibitor of Phosphatidylinositol-3-phosphate 5-kinase type III (PIKfyve), which is a key player in lysosomal exocytosis allowing lysosomes to fuse with the plasma membrane. The viability assay was performed in senescent IMR-90 cells using xCELLigence Real-Time Cell Analysis (RTCA) system that uses label-free cellular impedance to monitor cell health and viability over time.

[2] = system: senescent IMR-90 fibroblasts; assay: Crystal violet staining cell viability, senescent cells; conditions: 48 hours
Method: as §1
(§2) Cell viability after 48 h of apilimod (1 μM) or vacuolin-1 (1 μM) treatment was estimated by crystal violet. Cells in 6-well cell culture plates (Greiner Bio-One; Cat #657160) were washed twice with PBS, incubated with 4% paraformaldehyde for 15 minutes at room temperature, then stained with 0.25% crystal violet for 10 minutes. Cells were washed with deionized water and imaged, 3 images per well.
(§3) Apilimod is a clinical PIKfyve inhibitor. Apilimod was used to further validate the senolytic effects of PIKfyve inhibitors. […] To further characterize the potent cytotoxic effect of apilimod on non-senescent versus senescent cells, IMR-90 fibroblasts were treated with 1 μM of apilimod. […] Of note, the decrease in viable apilimod-treated non-senescent cells after 48 hours of treatment is likely in part due to a decrease in proliferation rather than viability of apilimod-treated cells.

[3] = Crystal violet staining cell viability, non-senescent cells; conditions: human, non-senescent IMR-90 fibroblasts, non-senescent cells, read-out: cell viability, quantification of adherent cells
Method: as §2, §3

[4] = system: non-senescent IMR-90 fibroblasts; assay: as above; conditions: 1 μM, 48 hours
Method: as §2, §3

| Structure (SMILES) | mean normalized cell index [1] | mean normalized cell index (senescent IMR-90 cells; senescent cells, 48 hours of treatment with 1 μM) | selective killing of senescent cells by blocking lysosomal exocytosis (senescent IMR-90 cells; senescent vs NS IMR-90 cells, dose response) | viability of senescent cells, light microscopy of crystal violet-stained cells ([2]; 1 μM) | viability at 1 µM ([2]; Homo sapiens, IMR-90, senescent condition, read-out: viable cells, quantification of adherent cells) [%] | viability at 48 h, 1 µM [3] [%] | non-senescent cell viability, light microscopy of crystal violet-stained cells [4] | senescent cell survival (senescent IMR-90 cells; 48 hours of treatment with 1 μM) | senescent cell survival (senescent IMR-90 cells; 48 hours of treatment with 5 μM) | senescent cell viability (senescent IMR-90 cells; dose response) |
| --- | --- | --- | --- | --- | --- | --- | --- | --- | --- | --- |
| Ic1cccc(/C=N/Nc2nc(N3CCOCC3)nc(N(c3ccccc3)c3ccccc3)n2)c1 [vacuolin-1] | 1.2 | 0.4 | selectively killed senescent IMR-90 cells in a dose-dependent manner |  |  |  |  |  |  |  |
| Cc1cccc(/C=N/Nc2cc(N3CCOCC3)nc(OCCc3ccccn3)n2)c1 [apilimod] |  |  |  | significant decrease | 17 | 92 | no effect | No senescent cells survived | No senescent cells survived | dose-dependent declines in senescent cell viability |
